Results: publication PMC7216467, “Evaluation of neuroprotective and anti-amnesic effects of Elaeagnus umbellata Thunb. On scopolamine-induced memory impairment in mice” (BMC Complementary Medicine and Therapies, 2020)

Tests used:
DPPH scavenging assay = experiment: DPPH scavenging assay
Procedure: About 24 mg, DPPH was dissolved in 100 mL methanol. Compounds solutions (1 mg/mL) were also prepared in methanol. […] About 0.1 mL of each working dilution was mixed with DPPH (3.0 mL) and incubated at 25 °C for 30 min. […] Ascorbic acid was used as a standard.

[1] = biological target: T1, Acetyl cholinesterase (Electron-eel Type, VI-S) (Electrophorus electricus, UniProt O42275); experiment: biochemical; type: biochemical; conditions: for IC50: linear regression, read-out: AChE IC50 (converted)
T1 construct: purchased Sigma-Aldrich, Germany
Procedure: Ellman assay was used to evaluate E. umbellata fruit extracts and isolated compounds for their anticholinesterase potentials. About 205 μL extract/compound solutions and 5 μL of AChE (0.03 U/mL)/BChE (0.01 U/mL) along with catalyst DTNB (5 μL) were taken in a cuvette and kept at 30 °C in hot water bath for 15 min. […] As a negative control solution all the above mentioned components except extracts and isolated compounds were mixed in the mentioned order.
V is inhibitor dependent rate of reaction while, Vmax is inhibitor independent rate of reaction.

ABTS scavenging assay = experiment: ABTS scavenging assay
Procedure: About 300 μL compounds working dilutions and 3.0 mL ABTS solutions were mixed and incubated for 6 min. Finally the absorbance was measured via UV spectrophotometer. Ascorbic acid was used as positive control. % ABTS scavenging potential was measured using eq. 4.

[2] = test system: scopolamine-induced cognitive impairment in mice; experiment: Novel object recognition test, scopolamine-induced amnesia; type: in vivo; conditions: donepezil 2 mg/kg
Procedure: (§1) After the acclimatization period, in scopolamine-induced amnesia test the Albino male mice were randomly divided into six groups (n = 6) to study the effect of CHF. […] The doses of tested solutions of CHF. […] The treatments were continued for 8 days. In the Y-maze and Novel object recognition tests, scopolamine (1 mg/kg, i.p.) was given to the different groups only on the 8th day, 30 min after the respective treatments, to induce cognitive deficit in mice. One hour after administration of the drugs all animals were subjected to Y-maze and Novel object recognition test following standard procedure.
The detail methodology published, was followed while performing the novel object recognition (NORT) test. NORT consisting of habituation, sample, and test phases. On the day before test, mice were allowed to explore the box (without any object) for 2 min. On the day of test after habituation the sample phase was carried out 60 min after the last treatment on the 8th day. In sample phase each mouse was placed in an open field with two identical objects (plastic ball) for 5 min. The mouse was then returned to its home cage. The apparatus was comprised of a white coloured plywood box (40 cm × 40 cm × 66 cm) with a network floors that could be effortlessly cleaned (with 70%v/v ethanol) after every trial. The apparatus was illuminated by a 60 W light suspended 50 cm over the crate. The arena and objects were cleaned with 70% v/v ethanol between trials to avoid olfactory cues. For short-term memory, the test phase was performed 5 min after the sample phase. In the test phase, each mouse was placed again in the open field in which one of the identical objects had been replaced with a novel object (plastic square). The location of the object was counterbalanced so that one half of the mice in each group saw the novel object on the left side of the box arena, and the other half saw the novel object on the right side of the box arena to eliminate bias of sides. NORT can also be used for encoding and retrieval of spatial memory (long-term memory). A wash-out period of 5 days was allowed before the NORT to assess long-term memory in mice. The procedure was the same as that for short-term memory except that mice were presented in the test phase 24 h after the sample phase exposure. The time spent exploring each object in each phase was recorded manually using a stopwatch. A mouse was scored as exploring when its head was oriented towards the object within a distance of 2 cm or when the nose was in contact with the object. Parameters including the time (in seconds) spent exploring familiar (F) object, time (in seconds) spent exploring the novel (N) object, and total time (in seconds) spent exploring both objects (N + F) were measured separately.

[3] = test system: scopolamine-induced cognitive impairment in mice; experiment: Y-maze test, scopolamine-induced amnesia; type: in vivo
Procedure: as §1
The Y-Maze test was designed to evaluate the short term memory in experimental mice using reported procedure. Y-maze apparatus is Y shaped with three arms of equivalent size, labelled as A, B, and C. Each arm was 20 cm long, 6 cm wide and 15.5 cm high and was oriented at an angle of 120° from the other two. For each animal the Y maze testing was carried out for 5 min. Mice were placed in one arm, and the order and number of arm entries were recorded. An arm entry was considered to be complete when the hind paws of the mice was completely inside a given arm while alternation was defined as consecutive entries by a mouse into the three different arms. The arena was cleaned using 70% v/v ethanol between each trial to avoid olfactory cues. The escape latency (second) on day 1–5 were recorded for all animals. At the end of 5th day, the spontaneous alteration behavior study was conducted. In spontaneous alteration study, each animal was placed at the center of the Y-Maze apparatus and allowed to move freely through the maze. The series of arm entries were visually recorded. To start behavioral test the mice was set in one arm and recorded the number of arm entries, same arm returns (SAR), and alternate arm returns (AAR) were measured. Percent spontaneous alternation performance (SAP) was calculated by the following formula: 5 %SAP=Active alterationstotal alterations/Possible alterationstotalarmentries−2x100

[4] = vs scopolamine (1 mg/kg) group, CHF. Ext 200 mg/kg, CGA 10 and 30 mg/kg, donepezil 2 mg/kg

T1 sequence (O42275 24-633): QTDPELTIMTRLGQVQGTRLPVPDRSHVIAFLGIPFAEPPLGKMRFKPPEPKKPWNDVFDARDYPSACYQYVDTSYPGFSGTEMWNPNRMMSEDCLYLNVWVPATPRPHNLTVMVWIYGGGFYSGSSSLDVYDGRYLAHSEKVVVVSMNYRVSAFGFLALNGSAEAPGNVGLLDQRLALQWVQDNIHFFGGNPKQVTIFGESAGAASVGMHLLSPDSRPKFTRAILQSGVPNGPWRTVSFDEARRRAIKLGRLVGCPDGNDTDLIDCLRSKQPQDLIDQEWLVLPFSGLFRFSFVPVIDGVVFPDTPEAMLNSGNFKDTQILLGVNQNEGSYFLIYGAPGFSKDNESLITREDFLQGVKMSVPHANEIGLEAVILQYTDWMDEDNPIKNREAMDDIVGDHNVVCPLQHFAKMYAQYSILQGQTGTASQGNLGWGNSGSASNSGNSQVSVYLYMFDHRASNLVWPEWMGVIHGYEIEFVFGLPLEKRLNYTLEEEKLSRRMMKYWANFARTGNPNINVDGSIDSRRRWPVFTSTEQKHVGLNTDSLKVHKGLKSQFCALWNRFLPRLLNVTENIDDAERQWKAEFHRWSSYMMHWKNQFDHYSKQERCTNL

Oc1cc(O)cc(O)c1 [Compound-IV, Phloroglucinol]
DPPH IC50 (DPPH scavenging assay): 105 µg/mL | % DPPH Scavenging Mean ± SEM (DPPH scavenging assay; 31.05 µg/mL): 32±0.5 % | % DPPH Scavenging Mean ± SEM (DPPH scavenging assay; 62.5 µg/mL): 36±1.1 % | % DPPH Scavenging Mean ± SEM (DPPH scavenging assay; 125 µg/mL): 40±0.5 % | % DPPH Scavenging Mean ± SEM (DPPH scavenging assay; 250 µg/mL): 51±1.0 % | % DPPH Scavenging Mean ± SEM (DPPH scavenging assay; 500 µg/mL): 57±1.0 % | % DPPH Scavenging Mean ± SEM (DPPH scavenging assay; 1000 µg/mL): 67±0.4 % | % AChE Mean ± SEM ([1]; 31.05 µg/mL): 21±1.5 % | % AChE Mean ± SEM ([1]; 62.5 µg/mL): 29±2.1 % | % AChE Mean ± SEM ([1]; 125 µg/mL): 34±1.5 % | % AChE Mean ± SEM ([1]; 250 µg/mL): 40±0.5 % | % AChE Mean ± SEM ([1]; 500 µg/mL): 52±1.6 % | % AChE Mean ± SEM ([1]; 1000 µg/mL): 66±1.2 % | IC50 [1]: 730 µM | ABTS IC50 (ABTS scavenging assay): 112 µg/mL | % ABTS Scavenging Mean ± SEM (ABTS scavenging assay; 31.05 µg/mL): 25±1.0 % | % ABTS Scavenging Mean ± SEM (ABTS scavenging assay; 62.5 µg/mL): 33±0.5 % | % ABTS Scavenging Mean ± SEM (ABTS scavenging assay; 125 µg/mL): 39±1.2 % | % ABTS Scavenging Mean ± SEM (ABTS scavenging assay; 250 µg/mL): 45±1.0 % | % ABTS Scavenging Mean ± SEM (ABTS scavenging assay; 500 µg/mL): 51±0.5 % | % ABTS Scavenging Mean ± SEM (ABTS scavenging assay; 1000 µg/mL): 54±1.1 %

O=c1oc2c(O)c(O)cc3c(=O)oc4c(O)c(O)cc1c4c23 [Compound-II, Ellagic acid]
DPPH IC50 (DPPH scavenging assay): 39 µg/mL | % DPPH Scavenging Mean ± SEM (DPPH scavenging assay; 31.05 µg/mL): 44±1.4 % | % DPPH Scavenging Mean ± SEM (DPPH scavenging assay; 62.5 µg/mL): 57±0.5 % | % DPPH Scavenging Mean ± SEM (DPPH scavenging assay; 125 µg/mL): 59±0.4 % | % DPPH Scavenging Mean ± SEM (DPPH scavenging assay; 250 µg/mL): 60±1.2 % | % DPPH Scavenging Mean ± SEM (DPPH scavenging assay; 500 µg/mL): 70±0.5 % | % DPPH Scavenging Mean ± SEM (DPPH scavenging assay; 1000 µg/mL): 77±1.1 % | % AChE Mean ± SEM ([1]; 31.05 µg/mL): 41±0.3 % | % AChE Mean ± SEM ([1]; 62.5 µg/mL): 48±0.5 % | % AChE Mean ± SEM ([1]; 125 µg/mL): 52±0.4 % | % AChE Mean ± SEM ([1]; 250 µg/mL): 68±0.1 % | % AChE Mean ± SEM ([1]; 500 µg/mL): 75±0.4 % | % AChE Mean ± SEM ([1]; 1000 µg/mL): 81±0.5 % | IC50 [1]: 195 µM | ABTS IC50 (ABTS scavenging assay): 44 µg/mL | % ABTS Scavenging Mean ± SEM (ABTS scavenging assay; 31.05 µg/mL): 41±0.5 % | % ABTS Scavenging Mean ± SEM (ABTS scavenging assay; 62.5 µg/mL): 49±1.0 % | % ABTS Scavenging Mean ± SEM (ABTS scavenging assay; 125 µg/mL): 57±1.0 % | % ABTS Scavenging Mean ± SEM (ABTS scavenging assay; 250 µg/mL): 64±0.3 % | % ABTS Scavenging Mean ± SEM (ABTS scavenging assay; 500 µg/mL): 65±0.4 % | % ABTS Scavenging Mean ± SEM (ABTS scavenging assay; 1000 µg/mL): 69±1.0 %

O=C(O)c1cc(O)c(O)c(O)c1 [Compound-III, Gallic acid]
DPPH IC50 (DPPH scavenging assay): 52 µg/mL | % DPPH Scavenging Mean ± SEM (DPPH scavenging assay; 31.05 µg/mL): 43±1.4 % | % DPPH Scavenging Mean ± SEM (DPPH scavenging assay; 62.5 µg/mL): 48±0.5 % | % DPPH Scavenging Mean ± SEM (DPPH scavenging assay; 125 µg/mL): 50±1.2 % | % DPPH Scavenging Mean ± SEM (DPPH scavenging assay; 250 µg/mL): 59±1.5 % | % DPPH Scavenging Mean ± SEM (DPPH scavenging assay; 500 µg/mL): 70±1.1 % | % DPPH Scavenging Mean ± SEM (DPPH scavenging assay; 1000 µg/mL): 76±0.5 % | % AChE Mean ± SEM ([1]; 31.05 µg/mL): 39±0.5 % | % AChE Mean ± SEM ([1]; 62.5 µg/mL): 43±1.1 % | % AChE Mean ± SEM ([1]; 125 µg/mL): 49±1.4 % | % AChE Mean ± SEM ([1]; 250 µg/mL): 55±0.3 % | % AChE Mean ± SEM ([1]; 500 µg/mL): 62±1.2 % | % AChE Mean ± SEM ([1]; 1000 µg/mL): 76±2.1 % | IC50 [1]: 265 µM | ABTS IC50 (ABTS scavenging assay): 54 µg/mL | % ABTS Scavenging Mean ± SEM (ABTS scavenging assay; 31.05 µg/mL): 43±1.3 % | % ABTS Scavenging Mean ± SEM (ABTS scavenging assay; 62.5 µg/mL): 48±0.4 % | % ABTS Scavenging Mean ± SEM (ABTS scavenging assay; 125 µg/mL): 50±1.5 % | % ABTS Scavenging Mean ± SEM (ABTS scavenging assay; 250 µg/mL): 54±1.1 % | % ABTS Scavenging Mean ± SEM (ABTS scavenging assay; 500 µg/mL): 60±0.5 % | % ABTS Scavenging Mean ± SEM (ABTS scavenging assay; 1000 µg/mL): 65±2.1 %

COc1cc2c(cc1OC)C(=O)C(CC1CCN(Cc3ccccc3)CC1)C2 (centres unmarked) [Donepezil, reference compound]
time for exploration of novel object, test phase, long term memory ([2]; CHF. Ext 100 & 200 mg/kg, CGA 10 & 30 mg/kg): significant (*p < 0.05, **p < 0.01) increase | %DI, long term memory ([2]; CHF. Ext 100, 200 mg/kg, CGA 10 & 30 mg/kg): significant (*p < 0.05, **p < 0.01) increase | time with novel object, test phase, short term memory ([2]; vs scopolamine group (*p < 0.05, **p < 0.01), CHF. Ext 50, 100, 200 mg/kg, CGA 10 and 30 mg/kg): more time with novel object | escape latency ([3]; day 1-5, vs scopolamine treated group): significant decline (p < 0.001) | percentage of alternate arm returns [3, 4]: significant (*p<0.05; **p < 0.01) increase | percentage of same arm returns [3, 4]: significant (p < 0.01) reduction

O=C1O[C@H]([C@@H](O)CO)C(O)=C1O [Ascorbic acid, reference compound]
DPPH IC50 (DPPH scavenging assay): 29 µg/mL | % DPPH Scavenging Mean ± SEM (DPPH scavenging assay; 31.05 µg/mL): 69±0.4% | % DPPH Scavenging Mean ± SEM (DPPH scavenging assay; 62.5 µg/mL): 73±0.5% | % DPPH Scavenging Mean ± SEM (DPPH scavenging assay; 125 µg/mL): 77±0.4% | % DPPH Scavenging Mean ± SEM (DPPH scavenging assay; 250 µg/mL): 80±0.4% | % DPPH Scavenging Mean ± SEM (DPPH scavenging assay; 500 µg/mL): 86±1.0% | % DPPH Scavenging Mean ± SEM (DPPH scavenging assay; 1000 µg/mL): 91±0.5% | ABTS IC50 (ABTS scavenging assay): 32 µg/mL | % ABTS Scavenging Mean ± SEM (ABTS scavenging assay; 31.05 µg/mL): 56±1.1% | % ABTS Scavenging Mean ± SEM (ABTS scavenging assay; 62.5 µg/mL): 64±1.0% | % ABTS Scavenging Mean ± SEM (ABTS scavenging assay; 125 µg/mL): 70±0.5% | % ABTS Scavenging Mean ± SEM (ABTS scavenging assay; 250 µg/mL): 78±0.5% | % ABTS Scavenging Mean ± SEM (ABTS scavenging assay; 500 µg/mL): 84±1.1% | % ABTS Scavenging Mean ± SEM (ABTS scavenging assay; 1000 µg/mL): 90±0.5%
